From patent EP0906127B1, “NOVEL DEVICES FOR TRANSDERMAL ADMINISTERING OF TRIMEGESTONE” (priority 1996, dated 1997) come the findings set out here.

Bounds are passed on as bounds.

Assay [1] concerns the target T1, récepteurs hormonaux humains recombinant de la progestérone (hPR) (Homo sapiens, UniProt P06401).
T1 construct: made in house; host or cells: SF9 insect cells / baculovirus
T1 sequence (P06401 1-933): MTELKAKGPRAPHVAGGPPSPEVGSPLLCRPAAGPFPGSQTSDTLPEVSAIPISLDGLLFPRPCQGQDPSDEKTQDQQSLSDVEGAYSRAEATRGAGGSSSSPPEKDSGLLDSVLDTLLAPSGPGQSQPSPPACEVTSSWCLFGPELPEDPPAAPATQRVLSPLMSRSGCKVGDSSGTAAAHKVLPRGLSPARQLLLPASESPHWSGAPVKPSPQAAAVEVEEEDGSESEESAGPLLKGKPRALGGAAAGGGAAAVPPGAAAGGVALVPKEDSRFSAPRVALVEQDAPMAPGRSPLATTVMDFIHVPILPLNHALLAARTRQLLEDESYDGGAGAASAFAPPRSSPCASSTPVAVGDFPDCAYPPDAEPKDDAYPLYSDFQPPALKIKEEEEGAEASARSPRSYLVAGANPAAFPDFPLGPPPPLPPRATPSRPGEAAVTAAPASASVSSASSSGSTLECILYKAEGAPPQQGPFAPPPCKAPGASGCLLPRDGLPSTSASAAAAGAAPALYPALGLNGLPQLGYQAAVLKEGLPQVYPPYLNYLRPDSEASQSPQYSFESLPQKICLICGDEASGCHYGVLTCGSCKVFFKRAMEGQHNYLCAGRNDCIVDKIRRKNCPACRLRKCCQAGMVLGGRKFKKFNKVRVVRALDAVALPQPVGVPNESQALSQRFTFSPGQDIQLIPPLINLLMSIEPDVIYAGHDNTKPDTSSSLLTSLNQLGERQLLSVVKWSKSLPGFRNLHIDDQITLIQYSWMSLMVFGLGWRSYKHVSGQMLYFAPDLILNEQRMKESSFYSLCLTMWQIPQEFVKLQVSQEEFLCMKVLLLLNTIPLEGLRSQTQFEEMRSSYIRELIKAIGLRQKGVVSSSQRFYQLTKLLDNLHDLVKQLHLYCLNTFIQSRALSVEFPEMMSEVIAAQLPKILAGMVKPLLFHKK
Nature of the assay: Relative binding affinity for recombinant hormone receptors (SF9 insect cell-baculovirus overexpression). The text has this: (§1) Cette affinité a été étudiée sur les récepteurs hormonaux humains recombinant de la progestérone (hPR), androgène (hAN), glucocorticoide (hGR) et estrogène (hER).

Assay [2] addresses T2, récepteurs hormonaux humains recombinant estrogène (hER) (Homo sapiens, UniProt P03372).
T2 construct: made in house; host or cells: SF9 insect cells / baculovirus
T2 sequence (P03372 1-595): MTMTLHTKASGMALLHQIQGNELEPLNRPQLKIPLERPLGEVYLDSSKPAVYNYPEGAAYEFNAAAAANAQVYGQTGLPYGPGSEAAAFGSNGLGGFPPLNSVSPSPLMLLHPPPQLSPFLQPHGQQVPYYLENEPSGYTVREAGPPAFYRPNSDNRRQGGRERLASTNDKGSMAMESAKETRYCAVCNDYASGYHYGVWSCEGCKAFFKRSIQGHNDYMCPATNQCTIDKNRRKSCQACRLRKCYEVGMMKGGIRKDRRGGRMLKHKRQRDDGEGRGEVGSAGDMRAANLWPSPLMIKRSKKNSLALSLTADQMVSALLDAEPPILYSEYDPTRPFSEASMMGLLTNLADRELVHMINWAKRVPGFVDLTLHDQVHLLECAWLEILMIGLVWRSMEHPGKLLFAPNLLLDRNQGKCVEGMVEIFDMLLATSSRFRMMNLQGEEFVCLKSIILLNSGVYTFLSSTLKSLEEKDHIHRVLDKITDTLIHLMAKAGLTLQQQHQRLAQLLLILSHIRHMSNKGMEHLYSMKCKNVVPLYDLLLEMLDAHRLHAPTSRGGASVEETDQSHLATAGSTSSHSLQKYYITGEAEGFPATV
The assay is described as above.
Excerpt: as §1

Assay [3] has as its target T3, récepteurs hormonaux humains recombinant androgène (hAN) (Homo sapiens, UniProt P10275).
T3 construct: made in house; host or cells: SF9 insect cells / baculovirus
Described as above.
Excerpt: as §1

Assay [4] addresses T4, récepteurs hormonaux humains recombinant glucocorticoide (hGR) (Homo sapiens, UniProt P04150).
T4 construct: made in house; host or cells: SF9 insect cells / baculovirus
T4 sequence (P04150 1-777): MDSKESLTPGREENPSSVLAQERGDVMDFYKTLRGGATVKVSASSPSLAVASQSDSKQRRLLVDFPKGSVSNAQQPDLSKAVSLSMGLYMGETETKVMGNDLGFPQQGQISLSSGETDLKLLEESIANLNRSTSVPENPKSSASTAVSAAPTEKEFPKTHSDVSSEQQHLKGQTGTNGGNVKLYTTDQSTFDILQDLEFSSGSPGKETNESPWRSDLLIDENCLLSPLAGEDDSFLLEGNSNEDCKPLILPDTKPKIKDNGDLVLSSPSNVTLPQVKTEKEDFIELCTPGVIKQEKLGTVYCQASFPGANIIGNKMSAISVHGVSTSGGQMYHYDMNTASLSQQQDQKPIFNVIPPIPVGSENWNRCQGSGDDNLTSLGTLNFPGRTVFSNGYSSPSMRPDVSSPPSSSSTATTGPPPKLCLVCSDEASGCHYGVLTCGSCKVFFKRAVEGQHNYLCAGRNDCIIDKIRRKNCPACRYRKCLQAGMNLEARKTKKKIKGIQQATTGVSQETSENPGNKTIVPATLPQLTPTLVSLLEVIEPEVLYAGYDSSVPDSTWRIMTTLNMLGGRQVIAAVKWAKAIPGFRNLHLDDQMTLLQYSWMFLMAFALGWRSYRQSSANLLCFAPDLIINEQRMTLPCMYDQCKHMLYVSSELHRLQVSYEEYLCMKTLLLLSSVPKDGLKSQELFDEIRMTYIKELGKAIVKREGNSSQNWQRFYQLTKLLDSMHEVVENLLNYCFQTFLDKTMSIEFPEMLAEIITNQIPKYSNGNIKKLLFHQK
The description is as above. The text has this: Cette affinité a été étudiée sur les récepteurs hormonaux humains recombinant de la progestérone (hPR), androgène (hAN), glucocorticoide (hGR) et estrogène (hER). Ces récepteurs sont obtenus par surexpression dans un système cellules d'insectes-bacullovirus SF9 selon les méthodes décrites notamment dans la demande de brevet Européenne 0 629 635. Les affinité relatives de liaison (ARL) sont les suivantes : […]

A short description of assay [5]: In vivo studies of the hormonal activity profile.

T3 sequence (P10275 whole entry): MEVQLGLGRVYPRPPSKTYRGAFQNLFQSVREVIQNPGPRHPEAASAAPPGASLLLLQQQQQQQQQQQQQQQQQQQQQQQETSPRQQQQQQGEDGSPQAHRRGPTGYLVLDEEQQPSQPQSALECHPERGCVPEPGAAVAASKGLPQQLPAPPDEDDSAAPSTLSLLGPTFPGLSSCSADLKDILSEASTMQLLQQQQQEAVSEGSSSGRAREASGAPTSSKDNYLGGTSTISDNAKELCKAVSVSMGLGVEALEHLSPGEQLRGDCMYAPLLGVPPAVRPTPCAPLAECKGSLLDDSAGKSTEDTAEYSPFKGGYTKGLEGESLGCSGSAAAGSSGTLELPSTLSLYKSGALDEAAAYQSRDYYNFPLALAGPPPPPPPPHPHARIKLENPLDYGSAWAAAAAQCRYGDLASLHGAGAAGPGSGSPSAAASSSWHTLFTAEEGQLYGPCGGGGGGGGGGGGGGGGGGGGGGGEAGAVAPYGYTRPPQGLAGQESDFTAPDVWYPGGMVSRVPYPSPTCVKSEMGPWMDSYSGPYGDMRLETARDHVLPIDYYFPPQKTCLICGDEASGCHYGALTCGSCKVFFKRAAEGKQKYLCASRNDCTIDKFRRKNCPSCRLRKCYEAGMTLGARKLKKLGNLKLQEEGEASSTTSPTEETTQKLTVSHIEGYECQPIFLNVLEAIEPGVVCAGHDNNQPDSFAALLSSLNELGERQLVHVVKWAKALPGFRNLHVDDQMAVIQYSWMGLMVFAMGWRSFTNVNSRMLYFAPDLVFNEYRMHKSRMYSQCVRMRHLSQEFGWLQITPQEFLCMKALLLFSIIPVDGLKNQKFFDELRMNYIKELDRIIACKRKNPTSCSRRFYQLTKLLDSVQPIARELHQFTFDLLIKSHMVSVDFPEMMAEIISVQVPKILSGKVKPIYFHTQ

Regarding medroxypropgestérone [MPA], the “ARL hPR” value in assay [1] is on record as 298. Also, the “ARL hER” value in assay [2] is listed as < 0,02. The “ARL hAN” value in assay [3] (relative binding affinity) worked out at 36. Moreover, the “ARL hGR” value in assay [4] was 58.

On to `C[C@H](O)C(=O)[C@@]1(C)CC[C@H]2[C@@H]3CCC4=CC(=O)CCC4=C3CC[C@@]21C` [Trimegestone, 17alpha-méthyl-17béta-(2-hydroxy-1-oxo-propyl)-estra-4,9-dièn-3-one (21S)], for which, in assay [5], the “activité androgène” value is on record as “dénué”, the “activité antiandrogène” value is on record as “présente”, the “activité antiglucocorticoïde” value was “dénué” and the “activité antiminéralocorticoïde” value is “présente”. Further, in assay [5], the “activité estrogène” value is recorded as “dénué”, the “activité glucocorticoïde” value is given as “dénué”, the “activité minéralocorticoïde” value is “dénué” and the “activité progestomimétique” value was “puissant progestomimétique”. Also, in assay [3] (in words), the “affinité vis-à-vis du récepteur androgène” value is listed as “très faible affinité”.
